Key:
LNCaP cells = type: cell-based
NCI 60-cell panel = conditions: read-out: Growth Inhibition of 50% (GI50); cited from earlier work
[1] = system: Hsp90 derived from transformed cells overexpressing HER-2 (BT474, N87, SKOV3 and SKBR3); conditions: cited from earlier work
MCF7 cells [2] = system: MCF7 cells
MCF7 cells [3] = assay: Microscopy (light, transmission electron) of capsaicin-treated MCF7 cells; type: cell-based
[4] = system: Hsc70 (constitutive form); assay: Western blotting of Hsc70 in cancer cells; type: cell-based; conditions: HeLa and MCF7 cells
Experimental: (§1) FIGS. 2A-2F are autoradiographs of composite images of Western immuno-staining blots. […] FIGS. 2D-E show the Hsp90 client proteins HER2, GR, PRB, CDK4, Chk1, Raf-A, Akt and ILK, and the chaperones Hsp70, 2;3, Hsc70, HOP, HDJ2 (Hsp40), p23, Hsp90α and Hsp90β in the presence of DMSO, 2.5 μM 17AAG or 50, 100 or 200 μM capsaicin in HeLa cells (FIG. 2D) or MCF7 cells (FIG. 2E), respectively. In all blots, 2.5 μM 17-AAG was used as a positive control for cellular degradation of several kinases and hormone receptor clients of Hsp90, Beta actin (β-actin) was used a loading control. FIG. 2F is an autoradiograph of a Western blot showing capsaicin altered Hsp70 multi-chaperone complexes in cells. LNCaP cells were treated with 200 μM capsaicin for 6 h and then lysed, and Hsp70 complexes were pulled down using an antibody against Hsp70 on Protein A-Sepharose beads. Western blotting was performed for Hsp70, Hsp40 (HDJ-2), and Hsp90β. Capsaicin reduced Hsp40 and Hsp90 binding to Hsp70. Mouse IgG was used as a control.
(§2) Cells were lysed with buffer A (10 mM Tris pH 8.0, 137 mM NaCl, 10% glycerol, 1% Nonident P-40) supplemented with protease inhibitor cocktail (Roche Applied Science catalog no. 11 836 170 001) on ice for 30 minutes, shaking every 5 minutes. Lysate was centrifuged at 16,000×g for 10 minutes. 10 μg of clarified lysates were run on SDS-PAGE (10% gel) and transferred to PVDF membrane. […]

[5] = target: T1, Hsp70 multi-chaperone complexes (Homo sapiens, UniProt P0DMV8); assay: Hsp70 complex pull-down and Western blotting in LNCaP cells; type: cell-based; conditions: 200 μM capsaicin, 6 h
T1 construct: endogenous in cells; host or cells: LNCaP
T1 sequence (P0DMV8 2-641 limits assumed, one chain of several): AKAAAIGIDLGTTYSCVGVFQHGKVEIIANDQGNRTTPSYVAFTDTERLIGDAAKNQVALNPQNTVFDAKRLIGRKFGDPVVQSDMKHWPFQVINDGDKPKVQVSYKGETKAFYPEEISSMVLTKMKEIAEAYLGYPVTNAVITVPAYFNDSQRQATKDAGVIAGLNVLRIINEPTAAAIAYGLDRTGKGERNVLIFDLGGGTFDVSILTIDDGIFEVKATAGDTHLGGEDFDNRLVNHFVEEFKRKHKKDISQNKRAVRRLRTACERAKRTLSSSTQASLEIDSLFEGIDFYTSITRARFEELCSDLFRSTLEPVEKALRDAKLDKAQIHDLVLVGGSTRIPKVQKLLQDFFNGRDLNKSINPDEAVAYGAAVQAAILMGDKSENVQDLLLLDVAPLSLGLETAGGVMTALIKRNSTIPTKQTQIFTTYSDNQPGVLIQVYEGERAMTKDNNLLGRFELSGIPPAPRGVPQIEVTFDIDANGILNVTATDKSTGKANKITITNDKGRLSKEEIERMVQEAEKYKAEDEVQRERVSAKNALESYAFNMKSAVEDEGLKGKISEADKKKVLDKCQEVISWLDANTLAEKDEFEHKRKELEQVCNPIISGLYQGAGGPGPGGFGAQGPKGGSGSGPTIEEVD
Experimental: as §1
FIG. 12 is an autoradiograph of LNCaP cells treated with 200 μM capsaicin for 6 h and then lysed and Western blotted for Hsp70, Hsp40 (HDJ-2), and Hsp90β. Capsaicin reduced Hsp40 and Hsp90 binding to Hsp70. Mouse IgG was used as a control.

Hsp70 = Hsp70 (Homo sapiens, UniProt P0DMV8); assay: Fluorescence emission assay with purified Hsp70; type: binding; conditions: Hsp70 15 μM, capsaicin 7.5 μM, 1 h room temperature, excitation 266 nm
Hsp70, sequence (P0DMV8 2-641 limits assumed): as the sequence (P0DMV8 2-641 limits assumed, one chain of several) above
Experimental: (§3) FIG. 5A is a histogram showing the ratio of Hsp70 mRNA relative to β-actin in the presence of DMSO, 100 μM or 200 μM capsaicin (Cap) after RT-PCR. FIG. 5B is a graph of fluorescence emission spectra for capsaicin, Hsp70, Hsp70 with capsaicin (Hsp70+C), Hsp90, Hsp90 with capsaicin (Hsp90+C), Hsp40 and Hsp40 with capsaicin (Hsp40+C), at wavelengths between 290 and 440 nm. All chaperones were tested at 15 μM and capsaicin at 7.5 μM. Proteins were incubated for 1 h at room temp in the presence or absence of capsaicin. An excitation wavelength of 266 nm was used.
(§4) To determine the effect of molecular chaperones on the fluorescence emission of capsaicin, all chaperones were tested at 15 μM and capsaicin at 7.5 μM concentrations. Proteins were incubated for 1 h at room temperature in the presence or absence of capsaicin. A 96-well black plate and a SAFIRE-TECAN plate reader were used. The excitation wavelength was 266 nm.

Hsp40 = assay: Fluorescence emission assay with Hsp40; type: binding; conditions: Hsp40 15 μM, capsaicin 7.5 μM, excitation 266 nm
Experimental: as §3, §4

Hsp90 = assay: Fluorescence emission assay with Hsp90; type: binding; conditions: Hsp90 15 μM, capsaicin 7.5 μM, excitation 266 nm
Experimental: as §3, §4

[6] = system: Hsp90 client proteins (Her2, CDK4, ChK1, Raf-A, Akt, ILK, GR, PR, AR); assay: Western blotting of Hsp90 client proteins in cancer cells; type: cell-based; conditions: 50, 100, 200 μM capsaicin; HeLa, MCF7, LNCaP cells
Experimental: as §1, §2

[7] = system: Hsp70 (inducible form, Hsp70i); assay: Western blotting of Hsp70 in cancer cells; type: cell-based
Hsp70 mRNA = assay: Gene expression assay (RT-PCR) of Hsp70 mRNA in MCF7 cells; type: cell-based
[8] = system: cancer cells (LNCaP, MCF7, HepG2, HeLa); assay: Colony formation assay; type: cell-based; conditions: 200 μM capsaicin for 24 h, 15 days growth
Excerpt: FIG. 3A is a line graph of absorbance at 495 nm (arbitrary units) versus Capsaicin dose (μM) of Hs578Bst and MCF7 cells treated with the indicated dose of capsaicin. FIG. 3B is a line graph of absorbance at 495 nm versus time of capsaicin treatment (hours) of Hs578Bst cells and MCF7 cells. Stippled line represents Hs578Bst cells and solid line represents MCF7 cells. FIGS. 3C-F are histograms showing colony number versus treatment with DMSO or Capsaicin in the following cell lines: LNCaP (FIG. 3C), MCF7 (FIG. 3D), HepG2 (FIG. 3E), and HeLa (FIG. 3F). Cells were treated with 200 μM capsaicin for 24 h. Adherent cells were then collected and plated (1000 cells per 10 cm dish) for further incubation. The standard deviation of three dishes is shown as error bars. The experiment was reproduced twice. FIG. 3G is an autoradiograph of cell lysates HeLa, MCF7 and LNCaP treated with 200 μM capsaicin for 24 h; cell lysates were made and Western blotted for p62/SQSTM1 and LC3II. β-actin was used as a loading control. LNCaP cells were treated with 50, 100 and 200 μM capsaicin for 24 h. this experiment was reproduced twice. […] DMSO was used as a control.
Cells were grown in 6-well tissue culture plates to 60% confluence and treated with 200 μM capsaicin or DMSO control for 24 h. […] Cells were fixed with 6% Glutaraldehyde and 0.5% Crystal Violet, and colonies that contained 50 cells were counted. […]

[9] = 5 mg/kg by gavage, three days per week for 2-4 weeks; cited from earlier work
LC3II and p62/SQSTM1 = assay: Western blotting of autophagy markers; type: cell-based
[10] = purified capsaicin; cited from earlier work
[11] = in vivo; cited from earlier work
[12] = system: Hsp90α, Hsp90β, Hsp40, p23 and Hop; assay: Western blotting of molecular chaperones in cancer cells; type: cell-based; conditions: 50, 100, 200 μM capsaicin
Experimental: as §1, §2

[13] = system: Hsp90/Hsp70 chaperoning machinery (rabbit reticulocyte lysate) with progesterone receptor; assay: Progesterone receptor (PR) reconstitution assay: recovery of hormone binding activity of PR; type: biochemical
Excerpt: To identify small molecule inhibitors of molecular chaperones, a high-throughput functional screen was developed based on the isoform A of progesterone receptor (PRA), a well-established physiological client of Hsp90, and using rabbit reticulocyte lysate (RRL) as a source of molecular chaperones. This comprehensive functional assay measured the recovery of hormone binding activity of PRA after mild heat treatment. Purified PR was adsorbed onto PR22 antibody bound to protein A that was absorbed on 96 well plates. 100 μl of RRL lysate and ATP regeneration system was added to each well. After incubation for 30 min at 30° C., 0.1 μM [3H]-progesterone (American Radiolabeled Chemicals, Inc #ART 0063) was added. Plates were incubated on ice for 2 h at 4° C. Complexes were then washed three times with 200 μl of reaction buffer (20 mM Tris/HCl, pH 7.5, 5 mM MgCl2, 2 mM DTT, 0.01% NP-40, 50 mM KCl and 5 mM ATP) and assessed for bound progesterone by liquid scintillation using PerkinElmer Microbeta plate reader.
PR complexes were reconstituted on a 96-well plate; the first eight samples contain the following internal controls: 1. Protein A alone, 2. Protein A+PR22, 3. Protein A+PR22+PR, 4. Protein A+PR22+PR+RRL, 5. Protein A+PR22+PR+RRL+17-AAG (20 μM), 6. Protein A+PR22+PR+RRL+Myrecetin (20 μM), 7. Protein A+PR22+PR+RRL+geldanamycin (20 μM), 8. Protein A+PR22+PR+RRL+gedunin (20 μM). […]

[14] = system: HCT 116 colon cancer cells; conditions: cited from earlier work
[15] = preclinical data; cited from earlier work

C=CCNC1=C2C[C@@H](C)C[C@H](OC)[C@H](O)[C@@H](C)/C=C(\C)[C@H](OC(N)=O)[C@@H](OC)/C=C\C=C(/C)C(=O)NC(=CC1=O)C2=O [17-AAG, 17-allylamino-17-demethoxygeldanamycin]
cell killing (relative survival) (LNCaP cells): very little effect or no effect
GI50 (NCI 60-cell panel): 120 nM
IC50 ([1]; Hsp90 from HER-2 overexpressing cells or BT474 breast carcinoma cells): 5 to 6 nM
higher affinity for Hsp90 derived from transformed cells ([1]; relative to non-tumor cells): more than 100 ×
cytotoxicity (cell survival) (MCF7 cells [2]): minimal cytotoxicity

COc1cc(CNC(=O)CCCC/C=C/C(C)C)ccc1O [capsaicin, 8-Methyl-N-vanillyl-trans-6-nonenamide]
mitophagy (MCF7 cells [3]): induced mitophagy
level of Hsc70 [4]: did not change
cell killing (relative survival) (LNCaP cells): very little effect or no effect
Hsp40 and Hsp90 binding to Hsp70 [5]: reduced
capsaicin fluorescence emission in presence of Hsp70 (Hsp70): completely quenched
capsaicin fluorescence emission in presence of Hsp40 (Hsp40): may not significantly change
capsaicin fluorescence emission in presence of Hsp90 (Hsp90): may not significantly change
cellular degradation of Hsp90 client proteins [6]: caused cellular degradation
level of Hsp70 ([7]; HeLa and MCF7 cells): reduced the level of Hsp70
degradation of Hsp70 ([7]; HeLa, LNCaP, MCF7, Hs578T and MDA-MB-231, 24 h): reproducibly caused degradation
level of Hsp70 after 6 h of treatment ([7]; LNCaP cells, 200 μM capsaicin, 6 h (FIG. 12)): not significantly down
stabilization of Hsp70 protein by autophagy inhibitor 3MA ([7]; capsaicin 200 μM (alone or with 17-AAG) plus 3MA 5 mM, 6 h): almost fully stabilizes
rescue of Hsp70 protein by proteasome inhibitor MG132 ([7]; capsaicin 200 μM plus MG132 20 μM, 6 h): does not rescue
Hsp70 protein level ([7]; capsaicin 200 μM, 17-AAG 200 nM (FIG. 7C)): decreased
level of Hsp70 mRNA (Hsp70 mRNA; 100 or 200 μM capsaicin, 24 h (FIG. 5A)): No change
level of Hsp70 mRNA (Hsp70 mRNA; capsaicin 200 μM, 17-AAG 200 nM (FIG. 7A)): slightly increased
ability of cancer cells to form colonies [8]: efficiently reduces
toxicity symptoms [9]: No toxicity symptoms were observed
LC3II modification (LC3II and p62/SQSTM1; HeLa cells, 200 μM capsaicin 24 h): no LC3II modification
LC3B modification (LC3II and p62/SQSTM1; LNCaP cells, 50, 100, 200 μM capsaicin 24 h): concentration-dependent induction
LC3II levels (LC3II and p62/SQSTM1; MCF7 and LNCaP cells, 200 μM capsaicin 24 h): significantly increased
p62/SQSTM1 protein level (LC3II and p62/SQSTM1; capsaicin treatment, Western blot): accumulation
solubility in alcohol, fats and oils [10]: freely soluble
solubility in cold water [10]: insoluble
pharmacokinetic half-life [11]: approximately 24 hours
expression level of molecular chaperones Hsp90α, Hsp90β, Hsp40, p23 and Hop [12]: did not affect
cell death of MCF7 cancer cells (MCF7 cells [2]): caused cell death
cytotoxicity (cell survival) (MCF7 cells [2]): minimal cytotoxicity
blocking the hormone-binding activity of PR ([13]; rescreened in triplicates at 20 μM final concentration): about 40%
modulation of the Hsp90 chaperoning activity ([13]; screen of NIH Clinical Collection library (FIG. 1)): efficient and reproducible modulation

CO[C@H]1/C=C\C=C(/C)C(=O)NC2=CC(=O)C(NCCN(C)C)=C(C[C@@H](C)C[C@H](OC)[C@H](O)[C@@H](C)/C=C(\C)[C@@H]1OC(N)=O)C2=O [17-DMAG, 17-Dimethylaminoethylamino-17-demethoxygeldanamycin]
GI50 (NCI 60-cell panel): 51 nM

COc1cc(CNC(=O)CCCCCCC(C)C)ccc1O [dihydrocapsaicin]
mitoautophagy [14]: induces mitoautophagy

CC(C)c1cc(-c2n[nH]c(=O)n2-c2ccc3c(ccn3C)c2)c(O)cc1O [Ganetespib]
cardiac or liver toxicity [15]: no evidence of cardiac or liver toxicity

Source: patent publication US20150025052A1, “Compositions and Methods for Inhibiting HSP90/HSP70 Machinery” (Georgia Regents Research Institute, Inc., priority 2013, published 2015)
